Article PMC10062379 (Archives of biochemistry and biophysics, 2022)

Each compound was assayed against tubulin (αβ-heterodimer) (assay: [3H] radioligand binding). Conditions: not given.
Design: species or system Bos taurus

Compound	Kd
spongistatin 1	1100 ± 300 nM

What follows are compounds tested against tubulin (αβ-heterodimer) (assay: competition with [3H]spongistatin […], centrifugal gel filtration). Conditions: not given.
Assay type: binding, Bos taurus

Compound	Ki
C=C(Cl)/C=C/C(O)CC(=C)CC1OC2C(C)C(OC(=O)CC3CC(O)CC4(CC(C)(O)CC(/C=C5/COC(C(C)C(=O)CC6CC(OC)CC7(CC(O)CC(/C=C\CCCC8OC(O)(CC(O)C8C)C2O)O7)O6)C5C)O4)O3)C1O (stereo not shown) [spongistatin 5]	2200 nM

The compounds below were run on HeLa (assay: cells). Conditions: Homo sapiens, 96 h, read-out: HeLa / IC50 (nM) ± S.D.).
Design: species or system OVCAR-8, NCI/ADR-RES

Compound	IC50
CC(C)[C@H](O)C(=O)N[C@H]1Cc2ccc3c(c2)[C@]24C5=C(N=C(O5)[C@H](C(C)C)NC1=O)c1nc(Cl)c(o1)-c1c(Cl)[nH]c5cccc(c15)-c1cccc2c1N[C@@H]4O3 [Diazonamide A]	15 ± 5 nM
COc1cc2cc(c1Cl)N(C)C(=O)C[C@H](OC(=O)[C@H](C)N(C)C(C)=O)[C@]1(C)O[C@H]1[C@H](C)[C@@H]1C[C@@](O)(NC(=O)O1)[C@H](OC)/C=C/C=C(\C)C2 [Maytansine]	2 nM
CO[C@@H](/C(C)=C/C=C/C(C)=C/c1coc(C)n1)[C@@H](C)[C@@H]1C[C@H](O)[C@@]2(C)O[C@@H]2/C=C/[C@@H](C)[C@H]2C[C@H](CC(=O)O2)C[C@@H]2O[C@H]2C(=O)O1 [Rhizoxin]	3 ± 1 nM
COc1ccc(C[C@H]2NC(=O)/C=C/C[C@@H]([C@H](C)[C@H]3O[C@@H]3c3ccccc3)OC(=O)[C@H](CC(C)C)OC(=O)[C@H](C)CNC2=O)cc1Cl [cryptophycin 1]	0.01 ± 0.004 nM
CC[C@H](C)[C@@H]([C@@H](CC(=O)N1CCC[C@H]1[C@H](OC)[C@@H](C)C(=O)N[C@@H](Cc1ccccc1)c1nccs1)OC)N(C)C(=O)[C@@H](NC(=O)[C@H](C(C)C)N(C)C)C(C)C [dolastatin 10]	0.04 ± 0.01 nM
C=C1C[C@@H]2CC[C@@]34C[C@H]5O[C@H]6[C@@H](O3)[C@H]3O[C@H](CC[C@@H]3O[C@H]6[C@H]5O4)CC(=O)C[C@@H]3[C@@H](OC)[C@@H](C[C@H](O)CN)O[C@H]3C[C@H]3O[C@@H](CC[C@@H]1O2)C[C@@H](C)C3=C [eribulin]	20 nM
CN[C@H](C(=O)N[C@H](C(=O)N(C)[C@H](/C=C(\C)C(=O)O)C(C)C)C(C)(C)C)C(C)(C)c1cn(C)c2ccccc12 [hemiasterlin]	0.25 ± 0.05 nM
CC[C@]1(O)C[C@@H]2CN(CCc3c([nH]c4ccccc34)[C@@](C(=O)OC)(c3cc4c(cc3OC)N(C)[C@H]3[C@@](O)(C(=O)OC)[C@H](OC(C)=O)[C@]5(CC)C=CCN6CC[C@]43[C@@H]65)C2)C1 [vinblastine]	6 ± 3 nM
